11 compounds from ChEMBL document CHEMBL1153224, “Fluorinated piperidine acetic acids as gamma-secretase modulators” (Bioorg Med Chem Lett, 2010) can be followed below.

The target of data set [1] is Gamma-secretase. Kind of data set: Inhibition of gamma secretase in human SHSY5Y cells expressing wild-type APP assessed as inhibition of intracellular amyloid beta-42 by electrochemiluminescent assay. The settings on record: sh-sy5y. It counts as cell-based.
Data set [2] addresses Gamma-secretase. Kind of data set: Inhibition of gamma secretase in human SHSY5Y cells expressing wild-type APP assessed as inhibition of intracellular amyloid beta-40 by electrochemiluminescent assay. Format: cell-based. Conditions: sh-sy5y; call rule not given here.
A short description of data set [3]: Plasma clearance in rat at 1 mg/kg, iv and 2 mg/kg, po. Format: ADME, organism-based.
A short description of data set [4]: Volume of distribution at steady state in rat at 1 mg/kg, iv and 2 mg/kg, po. Format: ADME, organism-based. The settings on record: in vivo, read-out: Vdss.
A short description of data set [5]: Half life in rat at 1 mg/kg, iv and 2 mg/kg, po. It counts as ADME, organism-based. The settings on record: in vivo.
Data set [6] has as its system Rattus norvegicus. Kind of data set: (§1) Oral bioavailability in rat at 2 mg/kg. Format: ADME, organism-based. The settings on record: in vivo.
The subject of data set [7] is Brain. Nature of the data set: Reduction in amyloid beta 42 level in APP-YAC transgenic mouse brain at 20 mg/kg, po after 7 hrs. It counts as functional. Further details: scale not given: the % may be the effect or the level left.
Data set [8] is described as follows: (§2) Drug level in APP-YAC transgenic mouse brain at 10 mg/kg, po after 7 hrs. Further details: dose 10 mg/kg, route oral. It counts as ADME, organism-based. Conditions: APP-YAC transgenic, brain, read-out: Drug uptake.
The nature of data set [9]: (§3) Plasma concentration in APP-YAC transgenic mouse at 10 mg/kg, po after 7 hrs. It counts as ADME, organism-based. The arrangement: dose 10 mg/kg, route oral. The settings on record: APP-YAC transgenic, plasma.
In data set [10] the test system is Brain. Kind of data set: Reduction in amyloid beta 42 level in rat brain after 7 hrs. Format: functional, tissue-based.
Another data set concerns Plasma. Kind of data set: Reduction in amyloid beta 42 level in rat plasma after 7 hrs. It counts as functional, cell-free.
For data set [11], the species on record is Rattus norvegicus. Kind of data set: Reduction in amyloid beta 42 level in rat after 7 hrs. Format: functional, organism-based.
Data set [12] can be described thus: AUC (0 to 24 hrs) in rat at 250 mg/kg, po after 7 days. Format: ADME, organism-based. The settings on record: plasma. Further details: time < 24 hr, dose 250 mg/kg, route oral.
In data set [13] the test system is Rattus norvegicus. Kind of data set: Toxicity in rat assessed as notch -related activity at 250 mg/kg, after 7 days. It counts as organism-based. The arrangement: dose 250 mg/kg. Conditions: in vivo, 168 h.
Data set [14] in a line: as §1. The settings on record: in vivo. Format: ADME, organism-based.
Data set [15] relates to Mus musculus. The description is as §2. It counts as ADME, organism-based. Further details: dose 10 mg/kg, route oral. Conditions: in vivo, 7 h.
Data set [16] relates to Mus musculus. Described as §3. Format: ADME, organism-based. Further details: dose 10 mg/kg, route oral. The settings on record: in vivo, 7 h.

A word on the IC50: it is the concentration that gives 50% inhibition. One may read the half-life as how long it takes for the measured level to halve. One may read the EC50 as the concentration at which the effect is half-maximal. As a reminder, the ED50 is the dose at which the effect has come halfway, by size or by number of responders. By AUC is commonly meant concentration integrated over time. As a reminder, the bioavailability is the share of a dose that reaches the circulation, judged against a reference dose that is usually intravenous.

`CC(C)(C)CCC(CCC(F)(F)F)N1CCC(F)(F)[C@H](CC(=O)O)[C@H]1c1ccc(C(F)(F)F)cc1` (some centres not stated): the 50% inhibitory concentration (IC50) was 600 nM at Gamma-secretase [1], above 10000 nM on Gamma-secretase [2] and “Dose-dependent effect” in the data set listed under Rattus norvegicus [11]. For the same compound, the clearance in data set [3] amounted to 3.8 mL/min/kg. The Vd in data set [4] stood at 1.9 L/kg. Moreover, the half-life in data set [5] was 5.1 h. Further, the F with Rattus norvegicus [6] stood at 160%. The Activity in the data set on Brain [7] is -84%; in the data set on Rattus norvegicus [13], “Non-toxic”. Besides, the values for the concentration at 7 h in data set [8] and in data set [9] were 580 nM and 1100 nM, respectively. The EC50 in the data set on Brain [10] is 1000 nM; with Plasma it was 3700 nM. In addition, in the data set listed under Rattus norvegicus [11] (Rattus norvegicus, 7 h), it took a dose of 5 mg/kg to reach the 50% effect level (ED50). For the same compound, in [12], the AUC at 24 h was found to be 2100 µM·h.
In the case of `C[Si](C)(C)CCC(CCC(F)(F)F)N1CCC(F)(F)[C@H](CC(=O)O)[C@H]1c1ccc(C(F)(F)F)cc1` (single isomer, unassigned; enantiomer 2), the IC50 is 640 nM on Gamma-secretase [1] and above 10000 nM at Gamma-secretase [2].
Regarding `C[Si](C)(C)CC[C@H](CCC(F)(F)F)N1CC[C@@H](CC(=O)O)C(F)(F)[C@H]1c1ccc(C(F)(F)F)cc1`, the IC50 was 230 nM on Gamma-secretase [1] and above 10000 nM on Gamma-secretase [2]. Also, the clearance in data set [3] came to 9.1 mL/min/kg. In addition, the Vd in data set [4] stood at 5.1 L/kg. In addition, the half-life in data set [5] is 6.4 h. Moreover, in data set [14], the bioavailability turned out to be 20%. In addition, the Activity in the data set on Brain [7] is on record as -64%. In addition, in the data set on Mus musculus [15], the Drug uptake result is “Not Active”. In addition, the Cp result in the data set on Mus musculus [16] was “Not Active”.
In the case of `CC(C)(C)C#CC(CCC(F)(F)F)N1CCC(F)(F)[C@H](CC(=O)O)[C@H]1c1ccc(C(F)(F)F)cc1` (some centres not stated), the IC50 is 1500 nM on Gamma-secretase [1] and above 10000 nM on Gamma-secretase [2].
Taken in the same sequence, the figures for `CC(C)(C)CCC(CCC(F)(F)F)N1CCC(F)(F)[C@H](CC(=O)O)[C@H]1c1ccc(C(F)(F)F)cc1` (single isomer, unassigned; enantiomer 1) were 1400 nM and above 10000 nM.
As for `CC(C)(C)C#CC(CCC(F)(F)F)N1CCC(F)(F)[C@H](CC(=O)O)[C@H]1c1ccc(C(F)(F)F)cc1` (mixture of isomers), the IC50 was 800 nM at Gamma-secretase [1] and above 10000 nM on Gamma-secretase [2].
`CN1CCC(F)(F)[C@H](CC(=O)O)[C@H]1c1ccc(C(F)(F)F)cc1`: the half-maximal inhibitory concentration (IC50) on Gamma-secretase [1] and at Gamma-secretase [2] was above 10000 nM in each case.
For the compound `CC(C)(C)CC[C@H](CCC(F)(F)F)N1CC[C@@H](CC(=O)O)C(F)(F)[C@H]1c1ccc(C(F)(F)F)cc1`, the IC50 is 490 nM on Gamma-secretase [1] and above 10000 nM at Gamma-secretase [2].
Regarding `CC(C)(C)C#CC(CCC(F)(F)F)N1CCC(F)(F)[C@H](CC(=O)O)[C@H]1c1ccc(C(F)(F)F)cc1` (single isomer, unassigned; enantiomer 2), the IC50 was 390 nM on Gamma-secretase [1] and above 10000 nM at Gamma-secretase [2].
Taken in the same sequence, the figures for `CC(C)CCC(CCC(C)C)N1CCC(F)(F)[C@H](CC(=O)O)[C@H]1c1ccc(C(F)(F)F)cc1` were 880 nM and above 10000 nM.
Taken in the same sequence, the figures for `CC(C)CC[C@H](c1ccc(C(F)(F)F)cc1)N1CC[C@@H](CC(=O)O)C(F)(F)[C@H]1c1ccc(C(F)(F)F)cc1` were 710 nM and above 10000 nM.
